Experiment in all cases: NCI-60 cell line screen, 48 h
For assay [1], the system named is MCF7 breast.
The subject of assay [2] is SK-MEL-28 melanoma.
Assay [3] deals with MDA-MB-231 breast.
For assay [4], the system named is MDA-MB-435.
For assay [5], the system named is SK-OV-3 ovarian.
Assay [6] deals with BT-549 breast.
The test system of assay [7] is SF-295 CNS.
The subject of assay [8] is OVCAR-3 ovarian.
Assay [9] deals with M14 melanoma.
Assay [10] relates to CAKI-1 renal.

Where “and” joins values, the source holds several entries; their conditions need not be identical. Equal entries are not always repeated.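 Cells were grown in 96-well plates and exposed to each compound for 48 hours at five concentrations; endpoints were interpolated linearly between bracketing concentrations, or set to the highest concentration if not reached. Abbreviation: GI50, concentration required for 50% inhibition of growth. TGI: total growth inhibition.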 Where only a bound is given, the exact number is not on record here.

On to `Cc1cc(N/N=C/c2nc(-c3ccccc3)oc2C)c2cc(Cl)ccc2n1`, for which the GI50 was 1.64 µM in [1]; 1.71 µM in [2]; 1.85 µM in assay [3]; 1.78 µM in assay [4]; 1.75 µM in assay [5]; 14.9 µM in assay [6]. Besides, the GI50 in [7] was 1.69 µM; in assay [8], 1.94 µM; in assay [9] it was 1.83 µM; in assay [10], 1.69 µM. Moreover, the TGI in assay [1] was found to be 3.56 µM; in assay [2], 3.16 µM; in [3] it was 3.69 µM; in assay [4], 3.26 µM; in assay [5], 3.29 µM; in [6], 29.3 µM. In addition, the TGI in [7] was 3.2 µM; in assay [8], 3.57 µM; in assay [9], 3.54 µM; in [10], 3.1 µM.
Consider `O=C(O)c1ccc(NS(=O)(=O)c2cccc3cccnc23)cc1`, for which the GI50 in assay [1], in [2], in [3], in assay [4], in [5] and in assay [6] was greater than 100 µM in each case. Also, the GI50 in [7], in [8], in [9] and in assay [10] was greater than 100 µM each time. Also, the TGI in assay [1], in assay [2], in [3], in assay [4], in assay [5] and in assay [6] was greater than 100 µM in each case. The TGI in assay [7], in assay [8], in assay [9] and in assay [10] was greater than 100 µM in each case.
As for `CCN(CC)CCCC(C)Nc1cnc(C(=O)Nc2cc(F)cc3cccnc23)cn1` (stereo not given), the GI50 was 2.1 µM in assay [1]; 1.84 µM and 1.22 µM in [2]; 3.42 µM and 0.568 µM in assay [3]; 3.4 µM and 1.45 µM in assay [4]; 14 µM and 1.68 µM in assay [5]; 11.1 µM and 1.59 µM in assay [6]. The GI50 was 12.7 µM and 1.81 µM in [7]; 2.14 µM and 0.349 µM in assay [8]; 2.04 µM and 0.994 µM in [9]; 2.89 µM and 2.05 µM in assay [10]. For the same compound, the TGI in assay [1] is 6.91 µM; in [2] it was 3.53 µM and 2.5 µM; in assay [3], 12.8 µM and 2.02 µM; in assay [4], 12.8 µM and 3.43 µM; in assay [5] it was 27.7 µM and 3.68 µM; in assay [6], 24 µM and 3 µM. Moreover, the TGI in [7] was 26.4 µM and 3.33 µM; in assay [8], 6.79 µM and 1.23 µM; in assay [9] it was 4.38 µM and 2.58 µM; in assay [10] it was 15.4 µM and 5.71 µM.
On to `COc1ccc(C2=C(c3cn(C)c4ccccc34)C(=O)NC2=O)cc1OC`, for which the GI50 was 5.75 µM in [1]; 16.8 µM in assay [2]; 10.7 µM in [3]; 1.1 µM in assay [4]; 6.72 µM in assay [5]; 8.02 µM in assay [6]. The GI50 in assay [7] is 10.4 µM; in [8], 7.57 µM; in assay [9], 6.83 µM; in assay [10], 5.78 µM. The TGI in assay [1], in [2], in assay [3], in [4], in [5] and in assay [6] was greater than 25 µM throughout. The TGI in [7], in [8], in [9] and in assay [10] was greater than 25 µM in each case.
With `Cc1ccc2c(=O)[nH]sc2c1`, the TGI in [1] was 36.1 µM; in [2], 38.4 µM; in assay [3], 31.2 µM; in assay [4], 27.6 µM; in [5], greater than 100 µM; in [6] it was 30 µM. In addition, the TGI in assay [7] was greater than 100 µM; in assay [8] it was 43.5 µM; in assay [9], 23.9 µM; in assay [10] it was 17.8 µM.
Take `Cn1c(=O)c2[nH]c(COCc3nc4c([nH]3)c(=O)n(C)c(=O)n4C)nc2n(C)c1=O`: the TGI in [1], in assay [2], in [3], in assay [4], in assay [5] and in [6] was greater than 100 µM in each case. The TGI in assay [7], in assay [8], in [9] and in [10] was greater than 100 µM each time.
As for `NC1CCC[C@@H](O)[C@H]1O` (stereo not given in full), the TGI in [1], in assay [2], in assay [3], in assay [4], in assay [5] and in [6] was greater than 100 µM throughout. Also, the TGI in [7], in assay [8], in [9] and in assay [10] was greater than 100 µM each time.
`CC1(C)N=C(N)N=C(N)N1c1cccc(CCCCc2ccc(S(=O)(=O)F)cc2Cl)c1`: the GI50 in assay [1] was 0.577 µM; in [2] it was 8.62 µM; in [3], 10.9 µM; in assay [4], 0.611 µM; in assay [5], 24.6 µM; in assay [6], 4.31 µM. Besides, the GI50 in assay [7] is 2.44 µM; in assay [8], 5.37 µM; in assay [9], 7.55 µM; in assay [10], 9.21 µM. For the same compound, the TGI is 15.7 µM in assay [1]; 22 µM in assay [2]; 43.1 µM in assay [3]; 18.5 µM in assay [4]; greater than 100 µM in [5]; greater than 46.3 µM in assay [6]. The TGI in assay [7] is greater than 38.8 µM; in assay [8], 34.1 µM; in [9], 28.1 µM; in [10] it was greater than 100 µM.
With `COc1cc(-c2cn(-c3ccc(Cl)cc3)c(=O)[nH]2)cc(OC)c1OC`, the GI50 in assay [1], in assay [2], in [3], in assay [4], in assay [5] and in [6] was greater than 100 µM in each case. Further, the GI50 in assay [7], in [8], in assay [9] and in assay [10] was greater than 100 µM each time. Moreover, the TGI in assay [1], in [2], in [3], in assay [4], in assay [5] and in assay [6] was greater than 100 µM throughout. Further, the TGI in [7], in [8], in assay [9] and in [10] was greater than 100 µM in each case.
As to `COc1cc2c(OC)c(c1)CCCC1=CC(=O)C=C(CCC2)C1=O`, the TGI was greater than 100 µM in [1]; greater than 100 µM in assay [2]; greater than 66.4 µM in assay [3]; 56.2 µM in [4]; greater than 100 µM in assay [5]; 92.3 µM in [6]. Moreover, the TGI in assay [7] was greater than 100 µM; in assay [8], 55.1 µM; in assay [9], greater than 64.5 µM; in assay [10], greater than 100 µM.
As for `COc1cc(-c2cc(-c3nc4ccccc4[nH]3)[nH]n2)cc(OC)c1OC`, the GI50 in [1] is 2.79 µM; in [2], 2.72 µM; in assay [3], 3.22 µM; in [4], 2.35 µM; in [5] it was 3.48 µM; in [6], 1.8 µM. Further, the GI50 is 3.13 µM in assay [7], 4 µM in assay [8], 2.57 µM in [9] and 2.24 µM in [10]. In addition, the TGI worked out at 10.3 µM in assay [1]; 9.71 µM in assay [2]; 15.8 µM in assay [3]; 7.61 µM in [4]; 9.74 µM in [5]; 8.11 µM in assay [6]. Further, the TGI is 14.7 µM in assay [7], 16.4 µM in [8], 11.6 µM in assay [9] and 14.4 µM in [10].
For `CN1CCN(Cc2ccc(NC(=O)c3[nH]ncc3Nc3ncnc4c3CCC4)cc2)CC1`, the GI50 was 0.372 µM in [1]; 2.61 µM in [2]; 2.98 µM in [3]; 1.8 µM in assay [4]; 0.185 µM in assay [5]; 2.14 µM in assay [6]. Moreover, the GI50 in [7] is 2.24 µM; in assay [8], 1.09 µM; in assay [9], 0.948 µM; in assay [10] it was 2.73 µM. Moreover, the TGI in assay [1] came out at 11.1 µM; in assay [2], 13.1 µM; in assay [3], 7.8 µM; in [4], 12.3 µM; in assay [5], 17.5 µM; in assay [6] it was 6.97 µM. For the same compound, the TGI turned out to be 12 µM in assay [7], 4.6 µM in [8], 13.4 µM in assay [9] and 11.1 µM in assay [10].
On to `C#CC[C@H](c1nc2cc(Cl)ccc2c(=O)n1Nc1ccccc1)N(CCCN)C(=O)c1cccc(Cl)c1F`, for which the GI50 in assay [1] is 0.0337 µM; in assay [2], 0.765 µM; in assay [3], 0.107 µM; in [4], 0.0281 µM; in [5] it was 0.116 µM; in assay [6], 0.798 µM. Besides, the GI50 was 0.353 µM in assay [7], 0.242 µM in assay [8], 0.3 µM in assay [9] and 2.6 µM in assay [10]. Also, the TGI is 1.36 µM in assay [1]; 2.22 µM in assay [2]; 0.601 µM in assay [3]; 0.0915 µM in [4]; 1.59 µM in [5]; 3.33 µM in assay [6]. The TGI in [7] worked out at 1.48 µM; in assay [8], 1.19 µM; in assay [9], 1.63 µM; in [10], 8.19 µM.
`CCc1ccc(CCC(=O)Nc2ncc(Cc3ccccc3)s2)o1`: the GI50 is 0.515 µM in assay [1]; 9.11 µM in [2]; 2.52 µM in assay [3]; 0.301 µM in assay [4]; 2.81 µM in assay [5]; 52.2 µM in assay [6]. In addition, the GI50 is 3.29 µM in assay [7], 2.67 µM in [8], 0.876 µM in assay [9] and 2.94 µM in assay [10]. The TGI was greater than 100 µM in assay [1]; greater than 100 µM in assay [2]; 22.2 µM in assay [3]; 10.1 µM in [4]; greater than 100 µM in assay [5]; greater than 100 µM in assay [6]. The TGI was greater than 100 µM in assay [7], 21.6 µM in [8], greater than 100 µM in assay [9] and greater than 100 µM in assay [10].
`NC(=O)C1=C(c2ccccc2)c2ccccc2C1=O`: the TGI in [1] turned out to be 32.9 µM; in assay [2], 44.1 µM; in assay [3], 32.4 µM; in assay [4] it was 65.8 µM; in [5], 33.2 µM; in assay [6], 30.9 µM. Moreover, the TGI in assay [7] was found to be 41.9 µM; in assay [8], 24.6 µM; in assay [9] it was 36.8 µM; in assay [10], 30.4 µM.
For the compound `O=C1C(Cl)=C(N2CCOCC2)C(=O)c2ccccc21`, the GI50 is 3.49 µM in assay [1]; 2.69 µM in assay [2]; 1.75 µM in [3]; 1.95 µM in assay [4]; 18.3 µM in assay [5]; 10.8 µM in [6]. The GI50 in assay [7] was 19.2 µM; in assay [8], 2.04 µM; in assay [9], 5.62 µM; in assay [10] it was 1.88 µM. Besides, the TGI in [1] is 17.9 µM; in [2], 6.32 µM; in assay [3] it was 3.72 µM; in assay [4], 3.72 µM; in assay [5], 32.2 µM; in assay [6], 23.2 µM. For the same compound, the TGI in [7] is 36.7 µM; in assay [8] it was 3.58 µM; in assay [9], 18.7 µM; in [10], 3.49 µM.

These data come from PubChem BioAssay (NCI).
